Reference: patent US20110224210A1, “NOVEL BIS-AMIDES AS ANTI-MALARIAL AGENTS” (priority 2008, published 2011)

What follows are compounds tested on P. falciparum K1 (strain resistant to chloroquine and pyrimethamine), erythrocytic stages (assay: Plasmodium falciparum in vitro assay, [3H] hypoxanthine incorporation). Details: Plasmodium falciparum, K1, P. falciparum strain K1; [3H] hypoxanthine incorporation; read-out: IC50 (nM) on K1.
Format: cell-based
Procedure: In Vitro Antimalarial Activity: Plasmodium falciparum In Vitro Assay
In vitro activity against erythrocytic stages of P. falciparum is determined using a [^3H] hypoxanthine incorporation assay. One strain resistant to chloroquine and pyrimethamine (P. falciparum K1) is used in the assays, and all test compounds are compared for activity with the standard drugs chloroquine (sigma C6628) and artemisinin (sigma-36, 159-3). Compounds are diluted in DMSO to 1 mM and added to parasite cultures incubated in RPMI 1640 medium without hypoxanthine, supplemented with HEPES (5.94 g/L), NaHCO3 (2.1 g/L), neomycin (100 U/mL), Albumax (5 g/L) and washed human red cells at 2.5% haematocrit (0.3% parasitaemia). Seven serial doubling dilutions of each compound are prepared in 96-well microtitre plates and incubated in a humidifying atmosphere at 37° C.; 4% CO2, 3% O2, 93% N2.
After 48 h, 50 μl of [3H] hypoxanthine (0.5 μCi) is added to each well of a plate. The plates are incubated for a further 24 h under the same conditions. The plates are then harvested with a Betaplate cell harvester (Wallac) and washed with distilled water. The dried filters are inserted into a plastic foil with 10 mL of scintillation fluid, and counted in a Betaplate liquid scintillation counter. IC50 values are calculated from sigmoidal inhibition curves using Microsoft Excel.

Compound	IC50
CN(C)C1CCN(C(=O)[C@H](Cc2ccccc2)N(Cc2ccc(-c3cncnc3)cc2)C(=O)C=Cc2ccc(Cl)nc2)CC1 [Example 40, (S)-N-[1-Benzyl-2-(4-dimethylamino-piperidin-1-yl)-2-oxo-ethyl]-3-(6-chloro-pyridin-3-yl)-N-(4-pyrimidin-5-yl-benzyl)-acrylamide]	490 nM
COc1ccc(C=CC(=O)N(Cc2ccc(-c3cncnc3)cc2)[C@@H](Cc2ccccc2)C(=O)N2CCC(N(C)C)CC2)cn1 [Example 41, (S)-N-[1-Benzyl-2-(4-dimethylamino-piperidin-1-yl)-2-oxo-ethyl]-3-(6-methoxy-pyridin-3-yl)-N-(4-pyrimidin-5-yl-benzyl)-acrylamide]	169 nM
CN(C)C1CCN(C(=O)[C@H](Cc2ccccc2)N(Cc2ccc(-c3cncnc3)cc2)C(=O)C=Cc2ccc(C(F)(F)F)cn2)CC1 [Example 42, (S)-N-[1-Benzyl-2-(4-dimethylamino-piperidin-1-yl)-2-oxo-ethyl]-N-(4-pyrimidin-5-yl-benzyl)-3-(5-trifluoromethyl-pyridin-2-yl)-acrylamide]	104 nM
Cc1c(C=CC(=O)N(Cc2ccc(-c3cncnc3)cc2)[C@@H](Cc2ccccc2)C(=O)N2CCC(N(C)C)CC2)cnn1C [Example 43, (S)-N-[1-Benzyl-2-(4-dimethylamino-piperidin-1-yl)-2-oxo-ethyl]-3-(1,5-dimethyl-1H-pyrazol-4-yl)-N-(4-pyrimidin-5-yl-benzyl)-acrylamide]	354 nM
CN(C)CC1CCN(C(=O)[C@H](Cc2ccccc2)N(Cc2ccc(-c3ccccn3)cc2)C(=O)C=Cc2ccc(C(F)(F)F)nc2)CC1 [Example 51, (S)-N-[1-Benzyl-2-(4-dimethylaminomethyl-piperidin-1-yl)-2-oxo-ethyl]-N-(4-pyridin-2-yl-benzyl)-3-(6-trifluoromethyl-pyridin-3-yl)-acrylamide]	90 nM
O=C([C@H](Cc1ccccc1)N(Cc1ccc(-c2ccccn2)cc1)C(=O)C=Cc1ccc(C(F)(F)F)cc1)N1CCC(CN2CCCC2)CC1 [Example 52, (S)-N-[1-Benzyl-2-oxo-2-(4-pyrrolidin-1-ylmethyl-piperidin-1-yl)-ethyl]-N-(4-pyridin-2-yl-benzyl)-3-(4-trifluoromethyl-phenyl)-acrylamide]	92 nM
O=C([C@H](Cc1ccccc1)N(Cc1ccc(-c2cncnc2)cc1)C(=O)C=Cc1ccc(C(F)(F)F)cc1)N1CCc2ccccc21 [Example 57, (S)-N-[1-Benzyl-2-(2,3-dihydro-indol-1-yl)-2-oxo-ethyl]-N-(4-pyrimidin-5-yl-benzyl)-3-(4-trifluoromethyl-phenyl)-acrylamide]	89 nM
COCCN(C)C(=O)[C@H](Cc1ccccc1)N(Cc1ccc(N2CCOCC2)cc1)C(=O)C=Cc1cc(C)nn1C [Example 59, (S)-3-(2,5-Dimethyl-2H-pyrazol-3-yl)-N-{1-[(2-methoxy-ethyl)-methyl-carbamoyl]-2-phenyl-ethyl}-N-(4-morpholin-4-yl-benzyl)-acrylamide]	121 nM
COCCN(C)C(=O)[C@H](Cc1ccccc1)N(Cc1ccc(N2CCOCC2)cc1)C(=O)C=Cc1cnc(C)n1C [Example 61, (S)-3-(2,3-Dimethyl-3H-imidazol-4-yl)-N-{1-[(2-methoxy-ethyl)-methyl-carbamoyl]-2-phenyl-ethyl}-N-(4-morpholin-4-yl-benzyl)-acrylamide]	464 nM
COCCN(C)C(=O)[C@H](Cc1ccccc1)N(Cc1ccc(N2CCOCC2)cc1)C(=O)C=Cc1csc(C)n1 [Example 62, (S)-N-{1-[(2-Methoxy-ethyl)-methyl-carbamoyl]-2-phenyl-ethyl}-3-(2-methyl-thiazol-4-yl)-N-(4-morpholin-4-yl-benzyl)-acrylamide]	138 nM
COCCN(C)C(=O)[C@H](Cc1ccccc1)N(Cc1ccc(N2CCOCC2)cc1)C(=O)C=Cc1sc(C)nc1C [Example 63, (S)-3-(2,4-Dimethyl-thiazol-5-yl)-N-{1-[(2-methoxy-ethyl)-methyl-carbamoyl]-2-phenyl-ethyl}-N-(4-morpholin-4-yl-benzyl)-acrylamide]	87 nM
COCCN(C)C(=O)[C@H](Cc1ccccc1)N(Cc1ccc(N2CCOCC2)cc1)C(=O)C=Cc1c(C)noc1C [Example 64, (S)-3-(3,5-Dimethyl-isoxazol-4-yl)-N-{1-[(2-methoxy-ethyl)-methyl-carbamoyl]-2-phenyl-ethyl}-N-(4-morpholin-4-yl-benzyl)-acrylamide]	180 nM
COCCN(C)C(=O)[C@H](Cc1ccccc1)N(Cc1ccc(N2CCOCC2)cc1)C(=O)C=Cc1nc(C)oc1C [Example 65, (S)-3-(2,5-Dimethyl-oxazol-4-yl)-N-{1-[(2-methoxy-ethyl)-methyl-carbamoyl]-2-phenyl-ethyl}-N-(4-morpholin-4-yl-benzyl)-acrylamide]	269 nM

Now those with a lower IC50, led by results:

IC50	Compound
14 nM	O=C([C@H](Cc1ccccc1)N(Cc1ccccn1)C(=O)C=Cc1ccc(C(F)(F)F)cc1)N1CCC(Cc2ccccc2)CC1 [Example 44, (S)-N-[1-Benzyl-2-(4-benzyl-piperidin-1-yl)-2-oxo-ethyl]-N-pyridin-2-ylmethyl-3-(4-trifluoromethyl-phenyl)-acrylamide]
4 nM	O=C([C@H](Cc1ccccc1)N(Cc1ccccc1)C(=O)C=Cc1ccc(C(F)(F)F)cc1)N1CCC(Cc2ccccc2)CC1 [Example 45, (S)-N-Benzyl-N-[1-benzyl-2-(4-benzyl-piperidin-1-yl)-2-oxo-ethyl]-3-(4-trifluoromethyl-phenyl)-acrylamide]
1 nM	O=C([C@H](Cc1ccccc1)N(Cc1ccc(-c2ccccn2)cc1)C(=O)C=Cc1ccc(C(F)(F)F)cc1)N1CCC(Cc2ccccc2)CC1 [Example 46, (S)-N-[1-Benzyl-2-(4-benzyl-piperidin-1-yl)-2-oxo-ethyl]-N-(4-pyridin-2-yl-benzyl)-3-(4-trifluoromethyl-phenyl)-acrylamide]
1 nM	O=C([C@H](Cc1ccccc1)N(Cc1ccc(-c2cccnc2)cc1)C(=O)C=Cc1ccc(C(F)(F)F)nc1)N1CCC(Cc2ccccc2)CC1 [Example 47, (S)-N-[1-Benzyl-2-(4-benzyl-piperidin-1-yl)-2-oxo-ethyl]-N-(4-pyridin-3-yl-benzyl)-3-(6-trifluoromethyl-pyridin-3-yl)-acrylamide]
8 nM	O=C([C@H](Cc1ccccc1)N(Cc1ccccc1)C(=O)C=Cc1ccc(C(F)(F)F)nc1)N1CCC(Cc2ccccc2)CC1 [Example 48, (S)-N-Benzyl-N-[1-benzyl-2-(4-benzyl-piperidin-1-yl)-2-oxo-ethyl]-3-(6-trifluoromethyl-pyridin-3-yl)-acrylamide]
13 nM	O=C([C@H](Cc1ccccc1)N(Cc1ccc(-c2ccccn2)cc1)C(=O)C=Cc1ccc(C(F)(F)F)nc1)N1CCC(c2ccccc2)CC1 [Example 50, (S)-N-[1-Benzyl-2-oxo-2-(4-phenyl-piperidin-1-yl)-ethyl]-N-(4-pyridin-2-yl-benzyl)-3-(6-trifluoromethyl-pyridin-3-yl)-acrylamide]
14 nM	CN(C)[C@@H]1CCN(C(=O)[C@H](Cc2ccccc2)N(Cc2ccc(-c3ccccn3)cc2)C(=O)C=Cc2ccc(C(F)(F)F)cc2)C1 [Example 53, N-[(S)-1-Benzyl-2-((R)-3-dimethylamino-pyrrolidin-1-yl)-2-oxo-ethyl]-N-(4-pyridin-2-yl-benzyl)-3-(4-trifluoromethyl-phenyl)-acrylamide]
17 nM	CN(C)[C@H]1CCN(C(=O)[C@H](Cc2ccccc2)N(Cc2ccc(-c3ccccn3)cc2)C(=O)C=Cc2ccc(C(F)(F)F)cc2)C1 [Example 54, N-[(S)-1-Benzyl-2-((S)-3-dimethylamino-pyrrolidin-1-yl)-2-oxo-ethyl]-N-(4-pyridin-2-yl-benzyl)-3-(4-trifluoromethyl-phenyl)-acrylamide]
65 nM	CN(C)[C@@H]1CCN(C(=O)[C@H](Cc2ccccc2)N(Cc2ccc(-c3ccccn3)cc2)C(=O)C=Cc2ccc(C(F)(F)F)nc2)C1 [Example 55, N-[(S)-1-Benzyl-2-((R)-3-dimethylamino-pyrrolidin-1-yl)-2-oxo-ethyl]-N-(4-pyridin-2-yl-benzyl)-3-(6-trifluoromethyl-pyridin-3-yl)-acrylamide]
58 nM	CN(C)[C@H]1CCN(C(=O)[C@H](Cc2ccccc2)N(Cc2ccc(-c3ccccn3)cc2)C(=O)C=Cc2ccc(C(F)(F)F)nc2)C1 [Example 56, N-[(S)-1-Benzyl-2-((S)-3-dimethylamino-pyrrolidin-1-yl)-2-oxo-ethyl]-N-(4-pyridin-2-yl-benzyl)-3-(6-trifluoromethyl-pyridin-3-yl)-acrylamide]
50 nM	O=C([C@H](Cc1ccccc1)N(Cc1ccc(-c2ccccn2)cc1)C(=O)C=Cc1ccc(C(F)(F)F)nc1)N1Cc2ccccc2C1 [Example 58, (S)-N-[1-Benzyl-2-(1,3-dihydro-isoindol-2-yl)-2-oxo-ethyl]-N-(4-pyridin-2-yl-benzyl)-3-(6-trifluoromethyl-pyridin-3-yl)-acrylamide]
48 nM	COCCN(C)C(=O)[C@H](Cc1ccccc1)N(Cc1ccc(N2CCOCC2)cc1)C(=O)C=Cc1c(C)nn(C)c1C [Example 60, (S)-N-{1-[(2-Methoxy-ethyl)-methyl-carbamoyl]-2-phenyl-ethyl}-N-(4-morpholin-4-yl-benzyl)-3-(1,3,5-trimethyl-1H-pyrazol-4-yl)-acrylamide]
